Experimental data reported in patent US12673074B2, “Mycobacterium for use in cancer therapy” (TONRON INTERNATIONAL LIMITED, priority 2020, dated 2026).

Legend:
[1] = system: advanced pancreatic cancer; experiment: Randomised, open-label, phase II study of gemcitabine with and without IMM-101 (IMAGE 1); type: in vivo, human
Text: This study is described in U.S. Pat. No. 8,617,520 assigned to the applicant, and the results were published by Dalgeish et al, in the paper entitled “Randomised, open-label, phase II study of gemcitabine with and without IMM-101 for advanced pancreatic cancer”. [Br. J. Cancer. 2016 Sep. 27; 115(7): 789-796] and also as “Long term survival in IMAGE 1 (Immune Modulation And Gemcitabine Evaluation 1), a randomized, open-label phase II trial comparing gemcitabine with and without IMM-101 in advanced pancreatic cancer”; Angus George Dalgleish and The IMAGE 1 Trial Investigators; Journal of Clinical Oncology 2015 33:15_suppl, 3051-3051.
In summary, this study compared, in patients with advanced pancreatic cancer, the effects of gemcitabine (GEM) in combination with IMM-101 (a suspension of heat-killed whole cell M. obuense in borate-buffered saline) to gemcitabine alone on: Safety and tolerability, including QoL; clinical signs and symptoms of disease; Overall survival (OS), progression-free survival (PFS), and overall response rate (ORR; Selected markers of tumour burden and immunological status
Disease outcome—patients, who provided informed consent, participated in a screening period of up to 28 days to establish eligibility. […]

[2] = system: advanced pancreatic cancer; conditions: phase II trial, metastatic pancreatic cancer patients; gemcitabine therapy with or without addition of IMM-101 (background); cited from earlier work

Q: Which results are given for Nc1ccn([C@@H]2O[C@H](CO)[C@@H](O)C2(F)F)c(=O)n1 [GEM, gemcitabine]?
A: patients with BOR of PD ([1]; PS2 patients): 2 patients; OS ([1]; pre-defined metastatic subgroup (84%)): 4.4 months; overall survival [2]: 4.4 months
